In patent publication US8568754B2, “Low-emission formaldehyde donor preparations and use thereof” (Air Liquide Sante (International), priority 2002, dated 2013):

Details: not told

## CC1CN(CN2COC(C)C2)CO1 (centres unmarked) [No. 1, N,N′-methylenebis(5-methyloxazolidine)]
  efflux time from a DIN beaker 4 mm: 22 s
  efflux time from the DIN beaker 6 mm: 6 s
